{
  "source": "paper PMC11825922",
  "about": "“Molecular interactions, structural effects, and binding affinities between silver ions (Ag^+) and amyloid beta (Aβ) peptides” (Scientific Reports, 2025)",
  "key": {"Aβ40 peptide": {"molecular_target": "T1, Aβ40 peptide (Homo sapiens, UniProt P05067)", "T1 construct": "Aβ(1–40) and Aβ(1–42), here abbreviated Aβ40 and Aβ42; purchased AlexoTech AB (Umeå, Sweden)", "T1 sequence (P05067 672-711 limits assumed)": "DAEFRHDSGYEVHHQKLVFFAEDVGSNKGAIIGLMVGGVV", "assay": "CD spectroscopy on Aβ secondary structure", "details": "10 µM Aβ40, 20 mM phosphate buffer pH 7.3, 16–256 µM AgNO3, 20 °C", "protocol": "Circular dichroism (CD) spectroscopy was performed with a Chirascan CD instrument (Applied Photophysics Ltd., U.K.) using a quartz cuvette with 2 mm pathlength containing 600 µL of 10 µM Aβ40 peptide in 20 mM phosphate buffer, pH 7.3. CD spectra were recorded at 20 °C between 190 and 260 nm, with 0.5 nm step size. One sample contained only Aβ40 in buffer, while another sample contained also 50 mM SDS detergent, in order to mimic a membrane environment. To both samples, AgNO3 was added in steps of 16 µM, 56 µM, and 256 µM. The Chirascan Pro-Data v.4.4.1 software (Applied Photophysics Ltd., U.K.) was used to process the recorded spectra with an eight points smoothing filter (Savitzky-Golay).\nFigure 3 CD spectra of 10 μM Aβ40 peptide in 20 mM phosphate buffer, pH 7.3. AgNO3 was titrated to the peptide, either in (A): buffer only, or (B): with 50 mM SDS present. Black: Aβ40 in buffer. Orange: + 50 mM SDS (in B only). Red: + 16 µM AgNO3. Green: + 56 µM AgNO3. Blue: + 256 µM AgNO3."}, "Aβ42 oligomers [1]": {"molecular_target": "T2, Aβ42 oligomers (Homo sapiens, UniProt P05067)", "T2 construct": "Synthetic lyophilized wildtype (wt) Aβ(1–42) peptide, abbreviated Aβ42; purchased JPT Peptide Technologies GmbH (Germany); host or cells: chemical synthesis", "T2 sequence (P05067 672-713 limits assumed)": "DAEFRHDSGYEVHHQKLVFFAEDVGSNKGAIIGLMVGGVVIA", "assay": "FTIR spectroscopy of SDS-stabilized Aβ42 oligomers", "details": "0–500 µM AgNO3; FTIR with BN-PAGE", "protocol": "(§1) The Aβ42 monomers were then used to prepare SDS-stabilized Aβ42 oligomers of approximately tetrameric size, using a previously published protocol[83] with the following modifications: the oligomers were prepared in D2O, at four-fold lower peptide concentration, and without the original dilution step[85]. The reaction mixture (100–120 μM Aβ42 in D2O-based PBS, containing 0.2% (6.9 mM) SDS) was incubated at 37 °C for 24 h together with either 0, 10, 100, or 500 µM AgNO3, respectively, and then flash-frozen in liquid N2 and stored at –20 °C for later analysis.\nFourier-transform infrared (FTIR) spectra of SDS-stabilized Aβ42 oligomers (prepared as described in Section “Preparation of Aβ42 oligomers” with 0–500 µM AgNO3) were recorded in transmission mode on a Tensor 37 FTIR spectrometer (Bruker Optik GmbH., Germany) equipped with a […] and a liquid nitrogen-cooled MCT detector. The unit was continuously purged with dry air during the measurements. […] The sample shuttle allowed sample and reference spectra to be recorded without opening the chamber. FTIR spectra were recorded at room temperature in the 1900–800 cm^–1 range, using 6 mm aperture, 2 cm^–1 resolution, a zero-filling factor of two, and 300 scans for both background and sample spectra. […] All spectra were analyzed and plotted using the OPUS 5.5 software. Second derivatives were calculated with a 17 cm^–1 smoothing factor. […]"}, "Aβ42 oligomers [2]": {"molecular_target": "T2, Aβ42 oligomers", "assay": "BN-PAGE analysis of SDS-stabilized Aβ42 oligomers", "details": "10, 100, 500 µM AgNO3, 100–120 µM Aβ42, 0.2% SDS, 37 °C 24 h", "protocol": "as §1\nHomogeneous solutions of SDS-stabilized Aβ42 oligomers, prepared as described in Section “Preparation of Aβ42 oligomers” with either 0, 10, 100, or 500 µM silver nitrate, were analyzed with BN-PAGE using the Invitrogen system (ThermoFisher Scientific, USA). For this purpose, 4–16% Bis–Tris Novex gels (ThermoFisher Scientific, USA) were loaded with 10 μL of samples containing either Aβ42 monomers or Aβ42 oligomers with increasing concentrations of silver, calibrated against the Amersham High Molecular Weight calibration kit for native electrophoresis (GE Healthcare, USA). The gel was first run at 4 °C for 90 min and then stained with the Pierce Silver Staining kit according to the manufacturer’s instructions (ThermoFisher Scientific, USA). […]"}, "Aβ40 peptide fibrils": {"molecular_target": "T3, Aβ40 peptide fibrils (Homo sapiens, UniProt P05067)", "T3 construct": "Aβ(1–40) and Aβ(1–42), here abbreviated Aβ40 and Aβ42; purchased AlexoTech AB (Umeå, Sweden)", "T3 sequence (P05067 672-711 limits assumed)": "as the sequence (P05067 672-711 limits assumed) above", "assay": "AFM imaging of Aβ40 aggregates after 72 h incubation", "details": "30 µM AgNO3, 10 µM Aβ40, 72 h, 37 °C, 5 mM MES pH 7.3", "protocol": "Samples for AFM imaging were produced by incubating 10 µM Aβ40 peptides in 5 mM MES buffer, pH 7.3, for 72 h at 37 °C with continuous shaking at 350 rpm together with different amounts of AgNO3, i.e. 0 µM; 2.5 µM; 5 µM; and 30 µM (corresponding to Ag^+:Aβ ratios of 0:1; 1:4; 1:2; and 3:1, respectively). The incubated samples were placed as 1 µL droplets on fresh silicon wafers (Siegert Wafer GmbH, Germany). After 2 min, 10 µL of Milli-Q water was added to the droplets, and then a lint-free wipe was used to remove all excess fluid. Next, the wafers were left to air-dry in a container, covered to protect from dust, and later the same day AFM images were recorded. A neaSNOM AFM unit (Neaspec GmbH, Germany) was used, running in tapping mode (Ω: 280 kHz, tapping amplitude 50–55 nm) and equipped with Pt/Ir-coated monolithic ARROW-NCPt Si tips (NanoAndMore GmbH, Germany) where the tip radius was less than 10 nm. Both topographic and mechanical phase images were recorded for 2.5 × 2.5 µm scanning areas (pixel size 200 × 200) with a scan speed of 2.5 ms/pixel. The images were minimally processed to perform basic plane levelling using the Gwyddion software.\nFigure 4 AFM images for 10 µM Aβ40 peptides together with different concentrations of AgNO3, incubated with agitation for 72 h at 37 °C in 5 mM MES buffer, pH 7.3. (A) 0 µM AgNO3; (B) 2.5 µM AgNO3; (C) 5 µM AgNO3; (D) 30 µM AgNO3. […]"}, "wt Aβ40 peptide": {"molecular_target": "T4, wt Aβ40 peptide (Homo sapiens, UniProt P05067)", "T4 construct": "Aβ(1–40) and Aβ(1–42), here abbreviated Aβ40 and Aβ42; purchased AlexoTech AB (Umeå, Sweden)", "T4 sequence (P05067 672-711 limits assumed)": "as above", "assay": "Tyr10 intrinsic fluorescence quenching titration with AgNO3, Morrison equation fit", "type": "binding", "details": "20 mM MES buffer, 20 °C, read-out: Mean KD^App value", "protocol": "A Jobin Yvon Horiba Fluorolog 3 fluorescence spectrophotometer (Longjumeau, France) was used to record the fluorescence emission intensity at 305 nm (excitation wavelength 276 nm) for samples of 10 µM Aβ peptide in 20 mM MES buffer, using a quartz cuvette with 4 mm path length at 20 °C. Measurements were carried out at pH 7.2 for different Aβ variants, i.e. Aβ40, Aβ40(NoHis) mutant, Aβ40(H6A) mutant, and Aβ(4–40). For Aβ40, measurements were carried out also at pH 5.3, and at pH 7.2 in the presence of 50 mM SDS detergent. AgNO3 was titrated to the samples using stock solutions of 1 mM, 2 mM, and 10 mM. The measured tyrosine fluorescence intensities were plotted against the concentration of Ag^+ ions, and dissociation constants were evaluated by fitting the data curves to Eq. (1), i.e. the Morrison Equation [94]:1 I=I0+I∞-I0/2·Aβ·KD+Ag+Aβ-KD+Ag+Aβ^2-4·Ag·Aβ\nHere, I0 is the initial fluorescence intensity with no added Ag^+ ions, I∞ is the steady-state intensity at the end of the titration, [Ag] is the concentration of added Ag^+ ions, KD is the dissociation constant, and [Aβ] is the concentration of Aβ peptide. […] Adding a linear term for the fluorescence quenching effect of free Ag^+ ions was considered unnecessary. […]\nIt is previously known that Ag^+ ions can quench the intrinsic fluorescence of amino acids such as tyrosines, including the Tyr10 residue in Aβ peptides. […]"}, "Aβ peptides": {"molecular_target": "Aβ peptides", "details": "cited from earlier work"}},
  "note": "pKd: −log10 of the molar value. Where two headings read alike, the source gives them in different places.",
  "data": [
    {"molecule": "monovalent silver ions (Ag^+)", "values": [
      {"measurement": "Effect on Aβ40 secondary structure (CD)", "setting": "Aβ40 peptide", "value": "slightly increased β-sheet structure"},
      {"measurement": "Effect on size, secondary structure, β-sheet planarity and number of strands of Aβ42 oligomers", "setting": "Aβ42 oligomers [1]", "value": "no significant effect"},
      {"measurement": "Average sizes, amounts and size distributions of Aβ42 oligomers versus without silver", "setting": "Aβ42 oligomers [2]", "value": "approximately the same"},
      {"measurement": "Effect on Aβ40 fibril morphology (AFM)", "setting": "Aβ40 peptide fibrils", "value": "much more tangled together"},
      {"measurement": "pKd", "setting": "wt Aβ40 peptide; Aβ40 pH 7.2 + 50 mM SDS", "value": 4.60},
      {"measurement": "pKd", "setting": "wt Aβ40 peptide; Aβ40 pH 7.2, 10 µM peptide", "value": 4.60}
    ]},
    {"molecule": "[Zn+2]", "note": "[Zn^2+]", "values": [
      {"measurement": "pKd", "setting": "Aβ peptides; read-out: Binding affinity", "value": "4.30 to 6.00"}
    ]},
    {"molecule": "[Cu+2]", "note": "[Cu^2+]", "values": [
      {"measurement": "Binding affinity", "setting": "Aβ peptides", "value": "sub-micromolar"},
      {"measurement": "pKd", "setting": "Aβ peptides; fluorescence measurements, read-out: Binding affinity for the Aβ·Cu^2+ complex, corrected for buffer effects", "value": "~9.00"}
    ]},
    {"molecule": "[Ni+2]", "note": "[Ni^2+]", "values": [
      {"measurement": "pKd", "setting": "Aβ peptides; read-out: Binding affinity", "value": "4.30 to 6.00"}
    ]}
  ]
}
